Laboratory results from publication PMC9645260, “Small-molecule inhibitors of P-Rex guanine-nucleotide exchange factors” (Small GTPases, 2022).

Target: T1, DOCK10 (DHR2) (Homo sapiens, UniProt Q96BY6)
T1 construct: The DOCK10 DHR2 domain, produced in and purified from bacteria; host or cells: bacteria
T1 sequence (Q96BY6 1690-2150 limits assumed): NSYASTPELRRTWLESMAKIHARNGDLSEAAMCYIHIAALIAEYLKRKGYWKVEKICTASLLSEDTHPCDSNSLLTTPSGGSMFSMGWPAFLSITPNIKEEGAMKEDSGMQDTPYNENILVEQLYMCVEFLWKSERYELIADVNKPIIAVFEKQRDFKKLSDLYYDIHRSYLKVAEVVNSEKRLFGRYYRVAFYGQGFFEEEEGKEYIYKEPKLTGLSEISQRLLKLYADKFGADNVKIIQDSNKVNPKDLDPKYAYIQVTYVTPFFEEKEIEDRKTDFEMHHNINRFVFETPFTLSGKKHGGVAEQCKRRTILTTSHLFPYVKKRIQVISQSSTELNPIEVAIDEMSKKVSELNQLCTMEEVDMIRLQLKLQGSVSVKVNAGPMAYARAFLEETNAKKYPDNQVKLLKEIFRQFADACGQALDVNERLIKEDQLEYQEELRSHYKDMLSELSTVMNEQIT
Assay: Liposome-based GEF activity assay, DOCK10
Type: biochemical
Settings: 10 µM, 765 nM DOCK10 DHR2
Method: Full-length N-terminally EE-tagged P-Rex1, P-Rex2, the P-Rex1 DH and DHPH domains and the P-Rex2 DH domain were produced in Sf9 cells using baculoviral transduction and were purified using anti-EE beads, as previously described. Briefly, frozen pellets from 500 ml of Sf9 culture infected with P-Rex expressing high-titre baculovirus were resuspended in ice-cold lysis Sf9-cell lysis buffer 2 (1x PBS, 1% Triton X-100, 5 mM EGTA, 1 mM EDTA, 25 mM NaF, 20 mM β-glycerophosphate, 1 mM DTT, 100 µM PMSF, 10 μg/ml each of leupeptin, pepstatin A, aprotinin and antipain) for 5 min and then ultracentrifuged at 118,000 × g for 1 h at 4°C. Supernatants were incubated with pre-washed anti-EE beads for 90 min on ice with end-over-end rotation. […] Protein concentration and purity were determined by coomassie staining of SDS-PAGE gels. […]
Liposome-based GEF activity assays were carried out essentially as described, except that GEFs were incubated with inhibitor compounds prior to the assay. […] Small GTPases were isolated using anti-EE antibody-coupled Sepharose beads or glutathione Sepharose beads, as appropriate, by incubation on ice for 90 min with end-over-end rotation, four washes in ice-cold wash buffer and resuspension of beads in Ultima Gold scintillation fluid (Perkin Elmer). ^35S-GTPγS incorporation was assessed by scintillation counting (Packard 1600TR, Liquid Scintillation Analyser).

Q: For `COc1ccc(-c2[nH]nc3c2C(c2ccc(-c4ccc(Cl)cc4)o2)C(C#N)=C(N)O3)cc1` (stereo not shown) [PREX-in1, 6-amino-4-[5-(4-chlorophenyl)-2-furyl]-3-(4-methoxyphenyl)-2,4-dihydropyrano[2,3-c]pyrazole-5-carbonitrile], which “effect on GEF activity of DOCK10” value is on record?
A: The value was “none of the other GEFs were affected”.
